Test results as given in PMC9639207 (RSC Advances, 2022).

How the values were obtained:
[1] = In vitro stability on incubation with mouse serum; assay type: in vitro ADME; settings: for half-life at 200 µM: mouse, serum
[2] = target: dipeptidyl peptidase-IV (DPP-IV) (Homo sapiens, UniProt P27487); test: In vitro proteolytic stability against DPP-IV; assay type: in vitro ADME; settings: for half-life: isolated enzyme dpp iv, pH 7.4
Chain of dipeptidyl peptidase-IV (DPP-IV) (P27487 whole entry, species assumed): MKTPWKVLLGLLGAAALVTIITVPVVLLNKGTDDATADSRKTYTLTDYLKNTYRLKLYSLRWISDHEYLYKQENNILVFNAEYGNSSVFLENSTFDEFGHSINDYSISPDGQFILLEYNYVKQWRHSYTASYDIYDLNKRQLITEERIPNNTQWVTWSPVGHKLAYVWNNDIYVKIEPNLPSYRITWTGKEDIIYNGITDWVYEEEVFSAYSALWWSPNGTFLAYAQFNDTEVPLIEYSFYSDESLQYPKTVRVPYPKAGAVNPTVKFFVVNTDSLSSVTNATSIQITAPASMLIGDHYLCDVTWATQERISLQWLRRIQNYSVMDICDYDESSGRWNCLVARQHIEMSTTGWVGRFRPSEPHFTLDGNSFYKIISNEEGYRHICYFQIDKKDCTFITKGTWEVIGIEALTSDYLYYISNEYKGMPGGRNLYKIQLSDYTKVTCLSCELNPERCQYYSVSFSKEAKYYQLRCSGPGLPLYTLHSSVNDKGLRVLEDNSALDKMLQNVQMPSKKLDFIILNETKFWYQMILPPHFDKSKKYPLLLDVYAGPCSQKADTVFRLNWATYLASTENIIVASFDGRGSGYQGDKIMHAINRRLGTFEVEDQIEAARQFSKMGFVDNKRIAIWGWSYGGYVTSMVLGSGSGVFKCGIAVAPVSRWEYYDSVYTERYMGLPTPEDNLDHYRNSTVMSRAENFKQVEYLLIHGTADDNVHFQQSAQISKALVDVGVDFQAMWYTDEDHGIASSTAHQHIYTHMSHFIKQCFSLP

| Structure (SMILES) | half-life at 200 µM [1] [h] | half-life [2] [h] | Fold in vitro half-life relative to native GLP-1, serum incubation ([1]; ratio to native GLP-1 (55.7 min), mouse serum, 37 °C) [fold] | Fold in vitro half-life relative to native GLP-1, DPP-IV incubation ([2]; ratio to native GLP-1 (10.2 min), DPP-IV, 37 °C) [fold] |
| --- | --- | --- | --- | --- |
| CC[C@H](C)[C@H](NC(=O)[C@H](Cc1ccccc1)NC(=O)[C@H](CCC(=O)O)NC(=O)[C@H](CCCCN)NC(=O)[C@H](C)NC(=O)[C@H](C)NC(=O)[C@H](CCC(N)=O)NC(=O)CNC(=O)[C@H](CCC(=O)O)NC(=O)[C@H](CC(C)C)NC(=O)[C@H](Cc1ccc(O)cc1)NC(=O)[C@H](CO)NC(=O)[C@H](CO)NC(=O)[C@@H](NC(=O)[C@H](CC(=O)O)NC(=O)[C@H](CO)NC(=O)[C@@H](NC(=O)[C@H](Cc1ccccc1)NC(=O)[C@@H](NC(=O)CNC(=O)[C@H](CCC(=O)O)NC(=O)[C@H](C)NC(=O)[C@@H](N)Cc1c[nH]cn1)[C@@H](C)O)[C@@H](C)O)C(C)C)C(=O)N[C@@H](C)C(=O)N[C@@H](Cc1c[nH]c2ccccc12)C(=O)N[C@@H](CC(C)C)C(=O)N[C@H](C(=O)N[C@@H](CC(=O)N[C@@H]1O[C@H](CO)[C@@H](O[C@@H]2O[C@H](CO)[C@@H](O[C@@H]3O[C@H](CO[C@H]4O[C@H](CO)[C@@H](O)[C@H](O)[C@@H]4O[C@@H]4O[C@H](CO)[C@@H](O[C@@H]5O[C@H](CO)[C@H](O)[C@H](O)[C@H]5O)[C@H](O)[C@H]4NC(C)=O)[C@@H](O)[C@H](O[C@H]4O[C@H](CO)[C@@H](O)[C@H](O)[C@@H]4O[C@@H]4O[C@H](CO)[C@@H](O[C@@H]5O[C@H](CO)[C@H](O)[C@H](O)[C@H]5O)[C@H](O)[C@H]4NC(C)=O)[C@@H]3O)[C@H](O)[C@H]2NC(C)=O)[C@H](O)[C@H]1O)C(=O)NCC(=O)N[C@H](C(=O)NCC(=O)O)[C@@H](C)O)C(C)C [Glycan-GLP-1-5(G2)] | 6.51 ± 0.225 | 3.0333 ± 0.00167 |  |  |
| CC[C@H](C)[C@H](NC(=O)[C@H](Cc1ccccc1)NC(=O)[C@H](CCC(=O)O)NC(=O)[C@H](CCCCN)NC(=O)[C@H](C)NC(=O)[C@H](C)NC(=O)[C@H](CCC(N)=O)NC(=O)CNC(=O)[C@H](CCC(=O)O)NC(=O)[C@H](CC(C)C)NC(=O)[C@H](Cc1ccc(O)cc1)NC(=O)[C@H](CO)NC(=O)[C@H](CO)NC(=O)[C@@H](NC(=O)[C@H](CC(=O)O)NC(=O)[C@H](CO)NC(=O)[C@@H](NC(=O)[C@H](Cc1ccccc1)NC(=O)[C@@H](NC(=O)CNC(=O)[C@H](CCC(=O)O)NC(=O)[C@H](C)NC(=O)[C@@H](N)Cc1c[nH]cn1)[C@@H](C)O)[C@@H](C)O)C(C)C)C(=O)N[C@@H](C)C(=O)N[C@@H](Cc1c[nH]c2ccccc12)C(=O)N[C@@H](CC(C)C)C(=O)N[C@H](C(=O)N[C@@H](CC(=O)N[C@@H]1O[C@H](CO)[C@@H](O[C@@H]2O[C@H](CO)[C@@H](O[C@@H]3O[C@H](CO[C@H]4O[C@H](CO)[C@@H](O)[C@H](O)[C@@H]4O[C@@H]4O[C@H](CO)[C@@H](O[C@@H]5O[C@H](CO[C@]6(C(=O)O)C[C@H](O)[C@@H](NC(C)=O)[C@H]([C@H](O)[C@H](O)CO)O6)[C@H](O)[C@H](O)[C@H]5O)[C@H](O)[C@H]4NC(C)=O)[C@@H](O)[C@H](O[C@H]4O[C@H](CO)[C@@H](O)[C@H](O)[C@@H]4O[C@@H]4O[C@H](CO)[C@@H](O[C@@H]5O[C@H](CO[C@]6(C(=O)O)C[C@H](O)[C@@H](NC(C)=O)[C@H]([C@H](O)[C@H](O)CO)O6)[C@H](O)[C@H](O)[C@H]5O)[C@H](O)[C@H]4NC(C)=O)[C@@H]3O)[C@H](O)[C@H]2NC(C)=O)[C@H](O)[C@H]1O)C(=O)NCC(=O)N[C@H](C(=O)NCC(=O)O)[C@@H](C)O)C(C)C [Glycan-GLP-1-5(G2S2)] | 12.9 ± 0.17 | 4.088 ± 0.0217 | 13.9 | 24.0 |
